How the values were obtained:
[1] = tested on: LTD4; assay: Leukotriene (LTD4) Induced arrhythmia and Hypertension Test; assay type: in vivo, guinea pig (Hartley); settings: 100 mg/kg po, 3 hour pretreatment, conscious guinea pigs; for No. Animals with Abnormal Beat/No. Tested: first two minutes after LTD4, saline control 12/12; for ↑ABP (increase in blood pressure after LTD4): saline control 30 ± 4; for ↓ABP (decrease in blood pressure after LTD4): saline control -45 ± 4
Procedure: (6) Leukotriene (LTD4) Induced arrhythmia and Hypertension Test
Male Hartley guinea pigs are anesthetized with sodium pentobarbital and prepared for monitoring direct blood pressure and injecting drugs intravenously by catheterizing the right carotid artery and right jugular vein. Blood pressure, heart rate, and Lead II ECG are monitored in the conscious animal 24 hours later.
The oral activity of a drug is evaluated by pretreating animals 3 hours before the LTD4 challenge.
Intravenous administration of LTD4 2.5 μg/kg) is associated with an increase in blood pressure lasting approximately 1-2 minutes followed by a decrease lasting approximately 5-15 minutes. Abnormal beats consisting of premature ventricular contractions, ST elevation or depression, atrioventricular conduction block, or dissociated p waves begin during the rise in blood pressure; the peak effect occurs approximately 40 seconds after LTD4. The number of animals with abnormal beats within the first two minutes after the injection of LTD4 over the total number of animals tested is presented in Table III. During the hypotensive response, the animal usually collapses during the 2nd or 3rd minute after LTD4 and regains posture approximately 10 minutes after LTD4.

[2] = biological target: T1, PAF binding to dog platelets (Canis lupus familiaris, UniProt A0A8I3NSH0); assay: PAF Radioreceptor Binding Assay (PAF Binding); settings: inhibition of 3H-PAF binding to dog platelets, 10 min, room temperature
T1 construct: from tissue; host or cells: washed platelets from citrate-treated dog blood
T1 sequence (A0A8I3NSH0 1-343): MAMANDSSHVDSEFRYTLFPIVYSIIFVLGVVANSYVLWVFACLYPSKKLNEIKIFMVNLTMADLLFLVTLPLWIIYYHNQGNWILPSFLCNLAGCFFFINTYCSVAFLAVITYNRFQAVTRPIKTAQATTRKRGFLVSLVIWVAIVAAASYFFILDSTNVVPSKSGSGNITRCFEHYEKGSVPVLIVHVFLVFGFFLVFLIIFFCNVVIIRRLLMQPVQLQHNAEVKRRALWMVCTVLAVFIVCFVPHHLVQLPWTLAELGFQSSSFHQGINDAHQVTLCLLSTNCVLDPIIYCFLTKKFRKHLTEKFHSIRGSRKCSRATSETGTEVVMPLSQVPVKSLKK
Procedure: (1) PAF Radioreceptor Binding Assay (PAF Binding)
Platelet rich plasma is prepared by centrifugation of citrate-treated dog blood. Acidification to pH 6.5 with 0.15M citric acid and centrifugation for 10 minutes at 1000×g yields a platelet pellet which is then washed by resuspension in EDTA-Phosphate Buffered Saline (PBS) and recentrifuged. The washed platelet preparation is adjusted to 2×10^7 platelets/50 μl in 0.1% bovine serum albumin-PBS.
To a 400 μl microfuge tube containing 50 μl silicone oil (specific gravity 1.023) is added buffer, PAF standard or analog, or an extract to bring the aqueous volume to 150 μl. 50 μl of ^3 H-PAF (10,000 cpm, 45 Ci/mM) is added followed by 2×10^7 dog platelets. After mixing, incubating for 10 minutes at room temperature, and centrifuging for 1 minute in a Beckman Microfuge B (8000×g), the pellet is removed by clipping off the tip of the tube, the platelets are solubilized with 200 μl of 50% methanol and counted in 10 ml of Aquasol. […] Results obtained with representative copounds of the present invention in this assay are summarized hereinafter in Tables I and II. IC50 is drug concentration (μMolar) which inhibits PAF binding to dog platelets by 50%.

[3] = tested on: PAF; assay: Inhibition of PAF-Induced Platelet Aggregation (Inhib. of PAF Platelet Reduction); assay type: in vivo, guinea pig; settings: Cavia porcellus, iv, 3 mg/kg i.v.
Procedure: (5) Inhibition of PAF-Induced Platelet Aggregation (Inhib. of PAF Platelet Reduction)
Guinea pigs (anesthetized) are set up to withdraw blood for platelet counting. The animal is allowed to stabilize after completion of surgical procedures. The carotid catheter is allowed to bleed back blood and then is filled, prior to each sample withdrawal with sodium citrate 3.8% (0.15 ml). Blood (0.25 ml) is withdrawn 30 seconds prior to the PAF challenge and at 15, 30 and 60 seconds after the PAF challenge. This first PAF challenge is used as the control, assuming sufficient decreases in platelet count are observed. The amount of PAF used will be approximately 50 ng/kg, however, this can be increased to achieve the desired decreases in platelet count. Fifteen minutes after the control PAF challenge, intravenous drug dosing begins, with animals being dosed at 30 minute intervals; PAF challenge follows 15 minutes after each intravenous dose. Three intravenous drug doses are used in each experiment. Initial drug doses are 1, 3 and 10 mg/kg i.v. Inhibition of PAF platelet reduction at 3 mg/kg i.v. for representative compounds of the invention are summarized hereinafter in Tables I and II. Percent inhibition is [formula]

[4] = tested on: PAF; assay: Inhibition of PAF Induced Guinea Pig Bronchoconstriction Test (Inhib. of PAF Broncho.); assay type: in vivo, guinea pig (Hartley strain); settings: Cavia porcellus, iv; 1 mg/kg i.v. (1 min. pretreat)
Procedure: (3) Inhibition of PAF Induced Guinea Pig Bronchoconstriction Test (Inhib. of PAF Broncho.)
Male guinea pigs (Hartley strain) weighing 300 to 500 g are anesthetized with urethane (2 g/kg) intraperitoneally and a polyethylene cannula is inserted into the jugular vein for drug administration. Tracheal pressure is recorded from a cannula inserted in the trachea and connected to a Statham pressure transducer. Propranolol (0.1 mg/kg) is administered intravenously five minutes before challenge with synthetic PAF, the animal's skeletal muscles are then paralyzed with succinylcholine (1.2 mg/kg i.v.), and the animal is respirated using a Harvard small animal respirator operating at 40 breaths/min and 2.5 cc stroke volume. Under these conditions PAF induces a dose-dependent increase in ventilatory pressure over a dose range of 0.5 to 5 μg/kg i.v. For screening purposes animals are challenged with a single dose of PAF (10 μg/kg i.v.).
The peak increase in ventilatory pressure (cm H2 O) is recorded for three control animals and five drug-treated animals and the percent inhibition determined from the following formula [formula] Results obtained with representative compounds of the invention in this test are summarized hereinafter in Tables I and II.

[5] = biological target: T2, TXA2 synthase (Homo sapiens, UniProt P24557); assay: Thromboxane Synthase Inhibition, In Vitro (TXA2 Synth. Inhib.); assay type: biochemical; settings: human platelet microsomes, 10 μM 14C-PGH2, 22° C., 2 min
T2 construct: using microsomal fractions from human platelets as enzyme source; from tissue; host or cells: microsomal fractions from human platelets
T2 sequence (P24557 1-533): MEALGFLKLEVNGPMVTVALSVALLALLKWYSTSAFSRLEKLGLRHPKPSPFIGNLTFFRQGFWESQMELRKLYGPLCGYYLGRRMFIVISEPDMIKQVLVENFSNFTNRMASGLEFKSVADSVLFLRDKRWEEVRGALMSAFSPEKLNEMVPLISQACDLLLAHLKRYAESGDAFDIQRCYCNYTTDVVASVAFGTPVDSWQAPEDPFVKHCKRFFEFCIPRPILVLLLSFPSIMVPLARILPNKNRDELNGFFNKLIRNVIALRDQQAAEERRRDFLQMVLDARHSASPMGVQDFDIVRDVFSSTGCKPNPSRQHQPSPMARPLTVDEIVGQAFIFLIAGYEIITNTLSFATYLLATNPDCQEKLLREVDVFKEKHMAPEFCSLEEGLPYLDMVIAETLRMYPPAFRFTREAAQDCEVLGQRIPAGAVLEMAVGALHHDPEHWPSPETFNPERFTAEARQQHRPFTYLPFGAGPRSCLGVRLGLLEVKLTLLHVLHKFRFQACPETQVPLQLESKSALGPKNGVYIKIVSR
Procedure: (2) Thromboxane Synthase Inhibition, In Vitro (TXA2 Synth. Inhib.)
TXA2 synthase activity is measured by following the conversion of ^14 C-prostaglandin endoperoxide (PGH2) to ^14 C-thromboxane A2 (TXA2) using microsomal fractions from human platelets as enzyme source. In the aqueous incubation medium, the TXA2 decomposes rapidly into TXB2. The amount of TXA2 synthase is adjusted so that under the conditions of the assay approximately 80-90% of the substrate, PGH2, is converted to product in control tubes. To prepare ^14 C-PGH2, ^14 C-AA (50-60 mCi/mmole; Rose Chem.) is incubated with sheep seminal vesicular gland microsomes for 1.5 minutes at 37° C. and then the ^14 C-PGH2 is extracted with diethylether, purified on columns oof Sephadex LH-20 or silicic acid, and stored in acetone at -70° C. Incubations are done as follows. Sufficient ^14 C-PGH2 to yield a final substrate concentration of 10 μM (30,000 cpm) is added to the incubation tubes and then the acetone is removed under nitrogen. The tubes are placed in an ice bath and then 215 μl of ice cold phosphate buffered saline, 10 μl of ethanol (control) or of test drug in ethanol, and 25 μl of the microsomal suspension are added with mixing in that order as rapidly as possible. The tubes are incubated at 22° C. for 2 minutes, the reaction is stopped and then the radioactive products and the unconverted PGH2 are extracted and analyzed by thin layer chromatography. […] The amount of ^14 C-PGH2 converted to products was used as a measure of TXA2 synthase activity. Inhibitors were tested initially at a final concentration 100 μM. Results obtained with representative compounds of the present invention in this assay are summarized hereafter in Tables I and II. IC50 is the drug concentration (μMolar) which inhibits TXA2 activity by 50%.

[6] = tested on: PAF; assay: Inhibition of PAF-Induced Rat Skin Wheal Test (Inhib. of PAF Skin Wheal); assay type: in vivo, Sprague-Dawley rats; settings: 5 mg/kg i.v., 5 ng PAF intradermally
Procedure: (4) Inhibition of PAF-Induced Rat Skin Wheal Test (Inhib. of PAF Skin Wheal)
This test evaluates the ability of compounds to inhibit PAF-induced increases in vascular permeability in the skin of Sprague-Dawley rats. PAF induces a dose-dependent skin wheal response in this system over a dose range of 0.0001 to 1 μg/0.05 ml injection. The profound vasoactive activity of PAF is emphasized by the fact that the maximum skin wheal response is considerably greater than that obtained with LTE and an EC50 response is elicited at a 10-fold lower dose. […] Thirty minutes later the animals are sacrificed and the increase in vascular permeability induced by the migration of dye into the injection point in the skin is determined. For this purpose, rats are sacrificed by cervical dislocation,the dorsal skin is removed, the long and short axis of each animal is measured with a metric vernier caliper and the average diameter is obtained. Results obtained are measured as % of migration of dye as compared to untreated animals. More specifically, results are measured as a percent inhibition of the diameters of the wheals formed in a treated animals as compared to untreated animals. […]

| IC50 [2] [nM] | IC50 [5] [nM] | Compound | No. Animals with Abnormal Beat/No. Tested [1] | ↑ABP (increase in blood pressure after LTD4) [1] | ↓ABP (decrease in blood pressure after LTD4) [1] | inhibition in vivo at 3 mg/kg [3] [%] | inhibition in vivo at 1 mg/kg [4] [%] | inhibition of PAF skin wheal [6] [%] |
| --- | --- | --- | --- | --- | --- | --- | --- | --- |
|  |  | CCCc1c(OCCCc2nnnn2CCCc2cccnc2)ccc(C(C)=O)c1O [3 3, 1-[2-Hydroxy-3-propyl-4-[3-[1-[3-(3-pyridinyl)propyl]-1H-tetrazol-5-yl]propoxy]phenyl]ethanone] | 1/4 | 14 ± 5 Δmm Hg | -23 ± 10 Δmm Hg |  |  |  |
|  |  | CCCc1c(OCCCCCc2nnnn2CCCc2cccnc2)ccc(C(C)=O)c1O [5 3, 1-[2-hydroxy-3-propyl-4-[5-[1-[3-(3-pyridinyl)propyl]-1H-tetrazol-5-yl]pentyloxy]phenyl]ethanone] | 0/4 | 13 ± 8 Δmm Hg | -20 ± 9 Δmm Hg |  |  |  |
| 450 | 100 to 1000 | CCCc1c(OCCCc2nnnn2CCCCc2cccnc2)ccc(C(C)=O)c1O [H H 3 4 3-pyridyl, 1-[2-Hydroxy-3-propyl-4-[3-[1-[4-(3-pyridinyl)butyl]-1H-tetrazol-5-yl]propoxy]phenyl]ethanone] |  |  |  | 40 | 59 ± 12 |  |
| 150 | 100 to 1000 | CCCc1c(OCCCCCc2nnnn2CCCc2cccnc2)ccc(C(C)=O)c1O [H H 5 3 3-pyridyl, 1-[2-hydroxy-3-propyl-4-[5-[1-[3-(3-pyridinyl)propyl]-1H-tetrazol-5-yl]pentyloxy]phenyl]ethanone] |  |  |  | 12 | 96 ± 1 |  |
| 275 | 100 to 1000 | CCCc1c(OCCCCCc2nnnn2CCCCc2cccnc2)ccc(C(C)=O)c1O [H H 5 4 3-pyridyl, 1-[2-Hydroxy-3-propyl-4-[5-[1-[4-(3-pyridinyl)butyl]-1H-tetrazol-5-yl]pentyloxy]phenyl]ethanone] |  |  |  | 0 | 58 ± 14 |  |

| Compound | IC50 [2] [nM] | IC50 [5] [nM] | No. Animals with Abnormal Beat/No. Tested [1] | ↑ABP (increase in blood pressure after LTD4) [1] | ↓ABP (decrease in blood pressure after LTD4) [1] | inhibition in vivo at 3 mg/kg [3] [%] | inhibition in vivo at 1 mg/kg [4] [%] | inhibition of PAF skin wheal [6] [%] |
| --- | --- | --- | --- | --- | --- | --- | --- | --- |
| CCCc1c(OCCCCc2nnnn2CCCn2ccnc2)ccc(C(C)=O)c1O [H H 4 3 1-imidazolyl, 1-[2-Hydroxy-3-propyl-4-[4-[1-[3-(1H-imidazol-1-yl)propyl]-1H-tetrazol-5-yl]butoxy]phenyl]ethanone] | 175 | 100 to 1000 |  |  |  | 3 | 8 ± 8 |  |
| CCCc1c(OCCCCc2nnnn2CCCc2cccnc2)ccc(C(C)=O)c1O [H H 4 3 3-pyridyl, 1-[2-Hydroxy-3-propyl-4-[4-[1-[3-(3-pyridinyl)propyl]-1H-tetrazol-5-yl]butoxy]phenyl]ethanone] | 125 | 100 to 1000 |  |  |  |  | 99 | 65±3 |
